Measured values: patent publication US12565501B2, “Muscarinic acetylcholine M1 receptor antagonists” (Contineum Therapeutics, Inc., priority 2019, dated 2026)

What follows are compounds tested against T1, human M1 receptor (Homo sapiens, UniProt P11229) (assay: In vitro functional assay of muscarinic acetylcholine receptor activity (aequorin calcium flux, reversal of EC80 acetylcholine response)). Conditions: CHO-K1 cells stably expressing human M1 receptor with aequorin; acetylcholine at EC80; calcium flux (luminescence); read-out: M1 IC50.
T1 sequence (P11229 1-460): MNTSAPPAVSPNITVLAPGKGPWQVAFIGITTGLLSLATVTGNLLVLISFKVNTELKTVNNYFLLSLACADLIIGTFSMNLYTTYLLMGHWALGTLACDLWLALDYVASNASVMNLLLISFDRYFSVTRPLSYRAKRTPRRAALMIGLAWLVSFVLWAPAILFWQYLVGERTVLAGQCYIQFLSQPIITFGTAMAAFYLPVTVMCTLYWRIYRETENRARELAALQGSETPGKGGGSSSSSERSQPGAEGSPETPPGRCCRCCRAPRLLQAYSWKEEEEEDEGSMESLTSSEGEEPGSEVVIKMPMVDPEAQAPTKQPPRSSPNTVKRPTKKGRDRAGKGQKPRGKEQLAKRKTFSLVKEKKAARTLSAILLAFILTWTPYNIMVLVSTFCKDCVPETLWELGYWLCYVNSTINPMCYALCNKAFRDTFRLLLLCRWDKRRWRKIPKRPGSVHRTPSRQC
Assay type: cell-based
Outline: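 Antagonist mode: compound (final 0.1% DMSO) and coelenterazine-loaded M1/aequorin CHO-K1 cells incubated 30 min in the dark before EC80 acetylcholine addition. Calcium flash integrated as 40 s luminescence AUC; IC50 derived from dose-response curves.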
For `COc1cc([C@@H](C)NCCC(=O)N2C[C@H]3CC[C@@H](C2)N3c2ccc(C#N)cn2)ccn1` [Example 21, 6-(3-(3-(((R)-1-(2-methoxypyridin-4-yl)ethyl)amino)propanoyl)-3,8-diazabicyclo[3.2.1]octan-8-yl)nicotinonitrile], the IC50 was 100 to 1000 nM. `COc1cc([C@H](C)NCCC(=O)N2C[C@H]3CC[C@@H](C2)N3c2ccc(C#N)cn2)ccn1` [Example 22, 6-(3-(3-(((S)-1-(2-methoxypyridin-4-yl)ethyl)amino)propanoyl)-3,8-diazabicyclo[3.2.1]octan-8-yl)nicotinonitrile] showed an IC50 of 1000 to 10000 nM. `N#Cc1ccc(N2C3CCC2CN(C(=O)CCN2CC(c4ccc(F)cc4)C2)C3)nc1` [Example 24] was tested, and the IC50 was > 1000 nM. For `CC(C)(NCCC(=O)N1C[C@H]2CC[C@@H](C1)N2c1ccc(C#N)cn1)c1cccc2ncccc12` [Example 25, 6-(3-(3-((2-(quinolin-5-yl)propan-2-yl)amino)propanoyl)-3,8-diazabicyclo[3.2.1]octan-8-yl)nicotinonitrile], the IC50 was < 10 nM. Compound `N#Cc1ccc(N2[C@@H]3CC[C@H]2CN(C(=O)CCNC2(c4ccc(F)cc4F)CC2)C3)nc1` [Example 26, 6-(3-(3-((1-(2,4-difluorophenyl)cyclopropyl)amino)propanoyl)-3,8-diazabicyclo[3.2.1]octan-8-yl)nicotinonitrile] has an IC50 of 10 to 100 nM. For `N#Cc1ccc(N2[C@@H]3CC[C@H]2CN(C(=O)CCNC2(c4cccc5ncccc45)CC2)C3)nc1` [Example 27, 6-(3-(3-((1-(quinolin-5-yl)cyclopropyl)amino)propanoyl)-3,8-diazabicyclo[3.2.1]octan-8-yl)nicotinonitrile], the IC50 was < 10 nM. In the case of `N#Cc1ccc(N2[C@@H]3CC[C@H]2CN(C(=O)CCNC2(c4ccc(F)nc4)CC2)C3)nc1` [Example 28, 6-(3-(3-((1-(6-fluoropyridin-3-yl)cyclopropyl)amino)propanoyl)-3,8-diazabicyclo[3.2.1]octan-8-yl)nicotinonitrile], the IC50 is reported as < 10 nM. For `N#Cc1ccc(N2[C@@H]3CC[C@H]2CN(C(=O)CCNC2(c4ccc(F)cn4)CC2)C3)nc1` [Example 29, 6-(3-(3-((1-(5-fluoropyridin-2-yl)cyclopropyl)amino)propanoyl)-3,8-diazabicyclo[3.2.1]octan-8-yl)nicotinonitrile], the IC50 was 1000 to 10000 nM. Compound `N#Cc1ccc(N2[C@@H]3CC[C@H]2CN(C(=O)CCNC2(c4cncc(F)c4)CC2)C3)nc1` [Example 30, 6-(3-(3-((1-(5-fluoropyridin-3-yl)cyclopropyl)amino)propanoyl)-3,8-diazabicyclo[3.2.1]octan-8-yl)nicotinonitrile] has an IC50 of 100 to 1000 nM. In the case of `N#Cc1ccc(N2[C@@H]3CC[C@H]2CN(C(=O)CCNC2(c4ncc(F)cc4F)CC2)C3)nc1` [Example 31, 6-(3-(3-((1-(3,5-difluoropyridin-2-yl)cyclopropyl)amino)propanoyl)-3,8-diazabicyclo[3.2.1]octan-8-yl)nicotinonitrile], the IC50 is reported as 100 to 1000 nM. Compound `N#Cc1ccc(N2[C@@H]3CC[C@H]2CN(C(=O)CCNC2(c4cccc(F)c4F)CC2)C3)nc1` [Example 32, 6-(3-(3-((1-(2,3-difluorophenyl)cyclopropyl)amino)propanoyl)-3,8-diazabicyclo[3.2.1]octan-8-yl)nicotinonitrile] has an IC50 of 10 to 100 nM. With `N#Cc1ccc(N2[C@@H]3CC[C@H]2CN(C(=O)CCNC2(c4cc(F)cc(F)c4)CC2)C3)nc1` [Example 33, 6-(3-(3-((1-(3,5-difluorophenyl)cyclopropyl)amino)propanoyl)-3,8-diazabicyclo[3.2.1]octan-8-yl)nicotinonitrile] the IC50 was 10 to 100 nM. `N#Cc1ccc(N2[C@@H]3CC[C@H]2CN(C(=O)CCNC2(c4ccc(Cl)c(F)c4)CC2)C3)nc1` [Example 34, 6-(3-(3-((1-(4-chloro-3-fluorophenyl)cyclopropyl)amino)propanoyl)-3,8-diazabicyclo[3.2.1]octan-8-yl)nicotinonitrile] was tested, and the IC50 was < 10 nM.
